How the values were obtained:
Plasma [1] = test: Drug level in human plasma assessed as compound formation treated with [14C]brivanib alaninate at 800 mg, po administered as single dose via gavage measured after 4 hrs by HPLC analysis; format: ADME, organism-based; conditions: in vivo
Plasma [2] = test: Drug level in human plasma assessed as compound formation treated with [14C]brivanib alaninate at 800 mg, po administered as single dose via gavage measured after 8 hrs by HPLC analysis; format: ADME, organism-based; conditions: in vivo
Plasma [3] = test: Drug level in human plasma assessed as compound formation treated with [14C]brivanib alaninate at 800 mg, po administered as single dose via gavage measured after 12 hrs by HPLC analysis; format: ADME, organism-based; conditions: in vivo
Liver microsome [4] = test: Drug level in human liver microsomes treated with brivanib by LC-MS/MS analysis in presence of NADPH; format: ADME
[5] = molecular target: Vascular endothelial growth factor receptor 2 (Homo sapiens, UniProt P35968); test: Inhibition of human recombinant VEGFR-2
Chain of Vascular endothelial growth factor receptor 2 (P35968 whole entry): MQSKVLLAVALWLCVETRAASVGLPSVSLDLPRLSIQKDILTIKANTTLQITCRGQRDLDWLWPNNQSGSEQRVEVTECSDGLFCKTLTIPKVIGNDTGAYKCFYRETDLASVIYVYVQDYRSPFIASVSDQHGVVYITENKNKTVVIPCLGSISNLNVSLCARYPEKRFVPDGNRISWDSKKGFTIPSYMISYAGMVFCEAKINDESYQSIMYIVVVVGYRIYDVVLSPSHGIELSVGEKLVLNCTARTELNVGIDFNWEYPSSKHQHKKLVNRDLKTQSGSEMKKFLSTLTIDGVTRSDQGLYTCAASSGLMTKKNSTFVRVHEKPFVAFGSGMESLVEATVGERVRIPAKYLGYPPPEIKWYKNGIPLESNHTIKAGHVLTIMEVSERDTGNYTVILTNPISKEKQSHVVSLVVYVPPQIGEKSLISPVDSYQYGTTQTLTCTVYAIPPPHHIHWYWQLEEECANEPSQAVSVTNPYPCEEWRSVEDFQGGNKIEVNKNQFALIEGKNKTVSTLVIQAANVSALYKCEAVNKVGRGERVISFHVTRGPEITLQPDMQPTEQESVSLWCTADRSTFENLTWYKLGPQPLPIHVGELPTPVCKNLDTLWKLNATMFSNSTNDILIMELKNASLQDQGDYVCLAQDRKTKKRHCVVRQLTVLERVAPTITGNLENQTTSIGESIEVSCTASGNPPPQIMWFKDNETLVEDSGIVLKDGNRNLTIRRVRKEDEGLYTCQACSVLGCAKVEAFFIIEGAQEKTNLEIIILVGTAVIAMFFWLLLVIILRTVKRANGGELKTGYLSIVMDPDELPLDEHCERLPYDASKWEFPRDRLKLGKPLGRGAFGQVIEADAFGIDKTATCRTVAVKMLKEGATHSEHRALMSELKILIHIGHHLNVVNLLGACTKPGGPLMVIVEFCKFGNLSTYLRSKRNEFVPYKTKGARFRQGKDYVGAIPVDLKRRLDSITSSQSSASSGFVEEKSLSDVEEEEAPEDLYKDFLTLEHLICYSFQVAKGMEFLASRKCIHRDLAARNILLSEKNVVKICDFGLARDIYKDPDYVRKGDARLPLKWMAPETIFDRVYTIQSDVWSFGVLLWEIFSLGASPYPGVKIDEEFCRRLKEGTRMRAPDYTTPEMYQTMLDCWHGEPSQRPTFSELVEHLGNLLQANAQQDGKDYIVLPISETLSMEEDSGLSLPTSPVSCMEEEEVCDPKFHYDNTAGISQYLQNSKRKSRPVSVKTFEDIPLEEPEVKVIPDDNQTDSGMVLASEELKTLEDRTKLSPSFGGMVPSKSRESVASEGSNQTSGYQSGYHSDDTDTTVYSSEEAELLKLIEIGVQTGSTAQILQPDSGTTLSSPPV

[6] = molecular target: Fibroblast growth factor receptor 1 (Homo sapiens, UniProt P11362); test: Inhibition of human recombinant FGFR-1
Chain of Fibroblast growth factor receptor 1 (P11362 whole entry): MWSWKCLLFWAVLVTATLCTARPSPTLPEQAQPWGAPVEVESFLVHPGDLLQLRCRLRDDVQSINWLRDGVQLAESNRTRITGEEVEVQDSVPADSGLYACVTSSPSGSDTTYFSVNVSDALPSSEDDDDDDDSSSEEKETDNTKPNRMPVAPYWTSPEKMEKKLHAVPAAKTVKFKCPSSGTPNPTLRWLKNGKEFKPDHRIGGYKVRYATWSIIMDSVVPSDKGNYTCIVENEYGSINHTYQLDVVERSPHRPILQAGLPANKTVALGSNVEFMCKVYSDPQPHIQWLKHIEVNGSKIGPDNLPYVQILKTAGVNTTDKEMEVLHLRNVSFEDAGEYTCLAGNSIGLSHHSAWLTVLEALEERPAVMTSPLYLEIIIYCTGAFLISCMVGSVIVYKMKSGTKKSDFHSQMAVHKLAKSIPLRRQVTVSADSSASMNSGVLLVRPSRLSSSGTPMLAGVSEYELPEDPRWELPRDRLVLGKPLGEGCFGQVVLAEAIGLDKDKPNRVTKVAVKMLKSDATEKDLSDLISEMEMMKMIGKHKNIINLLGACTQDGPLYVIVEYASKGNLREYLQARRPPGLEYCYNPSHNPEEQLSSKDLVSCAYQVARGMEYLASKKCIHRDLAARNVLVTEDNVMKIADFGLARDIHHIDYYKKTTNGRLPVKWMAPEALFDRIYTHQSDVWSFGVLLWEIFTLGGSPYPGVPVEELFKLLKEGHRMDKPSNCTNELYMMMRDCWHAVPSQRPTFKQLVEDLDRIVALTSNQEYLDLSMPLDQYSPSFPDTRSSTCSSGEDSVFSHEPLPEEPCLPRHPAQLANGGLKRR

Plasma [7] = test: Drug level in cynomolgus monkey plasma assessed as compound formation treated with [14C]brivanib alaninate at 10 mg/kg, po administered as single dose via gavage measured after 1 hr by mass spectrometry; format: ADME, organism-based, Macaca fascicularis; conditions: in vivo
Plasma [8] = test: Drug level in cynomolgus monkey plasma assessed as compound formation treated with [14C]brivanib alaninate at 10 mg/kg, po administered as single dose via gavage measured after 2 hrs by mass spectrometry; format: ADME, organism-based, Macaca fascicularis; conditions: in vivo
Plasma [9] = test: Drug level in cynomolgus monkey plasma assessed as compound formation treated with [14C]brivanib alaninate at 10 mg/kg, po administered as single dose via gavage measured after 4 hrs by mass spectrometry; format: ADME, organism-based, Macaca fascicularis; conditions: in vivo
Plasma [10] = test: Drug level in Sprague-Dawley rat plasma assessed as compound formation treated with [14C]brivanib alaninate at 100 mg/kg, po administered as single dose via gavage measured after 1 hr by HPLC analysis; format: ADME, organism-based; conditions: in vivo
Plasma [11] = test: Drug level in Sprague-Dawley rat plasma assessed as compound formation treated with [14C]brivanib alaninate at 100 mg/kg, po administered as single dose via gavage measured after 2 hrs by HPLC analysis; format: ADME, organism-based; conditions: in vivo
Plasma [12] = test: Drug level in Sprague-Dawley rat plasma assessed as compound formation treated with [14C]brivanib alaninate at 100 mg/kg, po administered as single dose via gavage measured after 6 hrs by HPLC analysis; format: ADME, organism-based; conditions: in vivo
Plasma [13] = test: Drug level in cynomolgus monkey plasma assessed as compound formation treated with [14C]brivanib alaninate at 10 mg/kg, po administered as single dose via gavage measured after 6 hrs by HPLC analysis; format: ADME, organism-based, Macaca fascicularis; conditions: in vivo
Plasma [14] = test: Drug level in cynomolgus monkey plasma assessed as compound formation treated with [14C]brivanib alaninate at 10 mg/kg, po administered as single dose via gavage measured after 12 hrs by HPLC analysis; format: ADME, organism-based, Macaca fascicularis; conditions: in vivo
Plasma [15] = test: Drug level in human plasma assessed as compound formation treated with [14C]brivanib alaninate at 800 mg, po administered as single dose via gavage measured after 1 hr by HPLC analysis; format: ADME, organism-based; conditions: in vivo
Plasma [16] = test: Drug level in human plasma assessed as compound formation treated with [14C]brivanib alaninate at 800 mg, po administered as single dose via gavage measured after 2 hrs by HPLC analysis; format: ADME, organism-based; conditions: in vivo
[17] = Drug level in cynomolgus monkey urine treated with [14C]brivanib alaninate at 10 mg/kg, po administered as single dose via gavage by mass spectrometry; format: ADME, organism-based, Macaca fascicularis; conditions: in vivo
Homo sapiens [18] = test: Drug uptake in human plasma treated with [14C]brivanib alaninate assessed as AUC (0 to 12 hrs) of total radio activity at 800 mg, po administered as single oral dose by HPLC analysis; format: ADME, organism-based; conditions: in vivo
Rattus norvegicus [19] = test: AUC (0 to 6 hrs) Sprague-Dawley rat plasma treated with [14C]brivanib alaninate at 100 mg/kg, po administered as single oral dose by HPLC analysis; format: ADME, organism-based; conditions: in vivo
Cynomolgus monkey [20] = test: AUC (0 to 4 hrs) cynomolgus monkey plasma treated with [14C]brivanib alaninate at 10 mg/kg, po administered as single oral dose by HPLC analysis; format: ADME, organism-based, Macaca fascicularis; conditions: in vivo
Homo sapiens [21] = test: AUC (0 to 12 hrs) human plasma treated with [14C]brivanib alaninate at 800 mg, po administered as single oral dose by HPLC analysis; format: ADME, organism-based; conditions: in vivo
[22] = Drug excretion in Sprague-Dawley rat urine treated with [14C]brivanib alaninate at 100 mg/kg, po administered as single dose via gavage by HPLC analysis; format: ADME, organism-based; conditions: in vivo
[23] = Drug excretion in Sprague-Dawley rat feces treated with [14C]brivanib alaninate at 100 mg/kg, po administered as single dose via gavage by HPLC analysis; format: ADME, organism-based; conditions: in vivo
[24] = Drug excretion in bile duct-cannulated rat bile treated with [14C]brivanib alaninate at 100 mg/kg, po administered as single dose via gavage by HPLC analysis; format: ADME, organism-based; conditions: in vivo
[25] = Drug excretion in cynomolgus monkey feces treated with [14C]brivanib alaninate at 10 mg/kg, po administered as single dose via gavage by HPLC analysis; format: ADME, organism-based, Macaca fascicularis; conditions: in vivo
[26] = Drug excretion in bile duct-cannulated cynomolgus monkey bile treated with [14C]brivanib alaninate at 10 mg/kg, po administered as single dose via gavage by HPLC analysis; format: ADME, organism-based, Macaca fascicularis; conditions: in vivo
[27] = Drug excretion in human urine treated with [14C]brivanib alaninate at 800 mg, po administered as single dose […] by HPLC analysis; format: ADME, organism-based; conditions: in vivo
[28] = Drug excretion in human feces treated with [14C]brivanib alaninate at 800 mg, po administered as single dose […] by HPLC analysis; format: ADME, organism-based; conditions: in vivo
Plasma [29] = test: Drug level in cynomolgus monkey plasma assessed as compound formation treated with [14C]brivanib alaninate at 10 mg/kg, po administered as single dose via gavage measured after 1 hr by HPLC analysis; format: ADME, organism-based, Macaca fascicularis; conditions: in vivo
Plasma [30] = test: Drug level in cynomolgus monkey plasma assessed as compound formation treated with [14C]brivanib alaninate at 10 mg/kg, po administered as single dose via gavage measured after 2 hrs by HPLC analysis; format: ADME, organism-based, Macaca fascicularis; conditions: in vivo
Plasma [31] = test: Drug level in cynomolgus monkey plasma assessed as compound formation treated with [14C]brivanib alaninate at 10 mg/kg, po administered as single dose via gavage measured after 4 hrs by HPLC analysis; format: ADME, organism-based, Macaca fascicularis; conditions: in vivo
Cynomolgus monkey [32] = test: Drug uptake in cynomolgus monkey plasma treated with [14C]brivanib alaninate assessed as AUC (0 to 4 hrs) of total radio activity at 10 mg/kg, po administered as single oral dose by HPLC analysis; format: ADME, organism-based, Macaca fascicularis; conditions: in vivo
Rattus norvegicus [33] = test: Drug uptake in Sprague-Dawley rat plasma treated with [14C]brivanib alaninate assessed as AUC (0 to 6 hrs) of total radio activity at 100 mg/kg, po administered as single oral dose by HPLC analysis; format: ADME, organism-based; conditions: in vivo
Cynomolgus monkey [34] = test: AUC (0 to 12 hrs) cynomolgus monkey plasma treated with [14C]brivanib alaninate at 10 mg/kg, po administered as single oral dose by HPLC analysis; format: ADME, organism-based, Macaca fascicularis; conditions: in vivo
[35] = Drug excretion in cynomolgus monkey urine treated with [14C]brivanib alaninate at 10 mg/kg, po administered as single dose via gavage by HPLC analysis; format: ADME, organism-based, Macaca fascicularis; conditions: in vivo
Liver microsome [36] = test: Drug metabolism in human liver microsomes assessed as (R)-1-(4-(4-fluoro-2-(hydroxymethyl)-1H-indol-5-yloxy)-5-methylpyrrolo[1,2-f][1,2,4]triazin-6-yloxy)propan-2-ol formation by LC-MS/MS analysis in presence of NADPH; format: ADME
Cynomolgus monkey [37] = test: Tmax in cynomolgus monkey plasma treated with [14C]brivanib alaninate at 10 mg/kg, po administered as single dose via gavage by LC-MS/MS analysis; format: ADME, organism-based, Macaca fascicularis; conditions: in vivo
Cynomolgus monkey [38] = test: AUC (0 to t) in cynomolgus monkey plasma treated with [14C]brivanib alaninate at 10 mg/kg, po administered as single dose via gavage by LC-MS/MS analysis; format: ADME, organism-based, Macaca fascicularis; conditions: in vivo
Homo sapiens [39] = test: Cmax in human plasma treated with [14C]brivanib alaninate at 800 mg, po administered as single dose […] by LC-MS/MS analysis; format: ADME, organism-based; conditions: in vivo
Homo sapiens [40] = test: Tmax in human plasma treated with [14C]brivanib alaninate at 800 mg, po administered as single dose […] by LC-MS/MS analysis; format: ADME, organism-based; conditions: in vivo
Homo sapiens [41] = test: AUC (0 to t) in human plasma treated with [14C]brivanib alaninate at 800 mg, po administered as single dose […] by LC-MS/MS analysis; format: ADME, organism-based; conditions: in vivo
Cynomolgus monkey [42] = test: Drug uptake in cynomolgus monkey plasma treated with [14C]brivanib alaninate assessed as AUC (0 to 12 hrs) of total radio activity at 10 mg/kg, po administered as single oral dose by HPLC analysis; format: ADME, organism-based, Macaca fascicularis; conditions: in vivo
Rattus norvegicus [43] = test: Cmax in Sprague-Dawley rat plasma treated with [14C]brivanib alaninate at 100 mg/kg, po administered as single dose via gavage by LC-MS/MS analysis; format: ADME, organism-based; conditions: in vivo
Rattus norvegicus [44] = test: Tmax in Sprague-Dawley rat plasma treated with [14C]brivanib alaninate at 100 mg/kg, po administered as single dose via gavage by LC-MS/MS analysis; format: ADME, organism-based; conditions: in vivo
Rattus norvegicus [45] = test: AUC (0 to t) in Sprague-Dawley rat plasma treated with [14C]brivanib alaninate at 100 mg/kg, po administered as single dose via gavage by LC-MS/MS analysis; format: ADME, organism-based; conditions: in vivo
Cynomolgus monkey [46] = test: Cmax in cynomolgus monkey plasma treated with [14C]brivanib alaninate at 10 mg/kg, po administered as single dose via gavage by LC-MS/MS analysis; format: ADME, organism-based, Macaca fascicularis; conditions: in vivo

| Compound recovery (Plasma [1]) | Compound recovery (Plasma [2]) | Compound recovery (Plasma [3]) | IC50 [5] | IC50 [6] | Compound recovery (Plasma [10]) | Compound recovery (Plasma [11]) | Compound recovery (Plasma [12]) | Compound recovery (Plasma [13]) | Compound recovery (Plasma [14]) | Compound recovery (Plasma [15]) | Compound recovery (Plasma [16]) | AUC metabolite/AUC radiolabel (Homo sapiens [18]) | AUC (Rattus norvegicus [19]) | AUC (Homo sapiens [21]) | Compound recovery [22] | Compound recovery [23] | Compound recovery [24] | Compound recovery [25] | Compound recovery [26] | Compound | further results |
| --- | --- | --- | --- | --- | --- | --- | --- | --- | --- | --- | --- | --- | --- | --- | --- | --- | --- | --- | --- | --- | --- |
| metabolite_not_detected | metabolite_not_detected | metabolite_not_detected | 78 nM | 760 nM | 1.5% | 1.2% | 1.1% | metabolite_not_detected | metabolite_not_detected | metabolite_not_detected | metabolite_not_detected |  |  |  |  |  |  |  |  | Cc1c(OC[C@@H](C)O)cn2ncnc(Oc3ccc4[nH]c(CO)cc4c3F)c12 | Compound recovery (Liver microsome [4]): metabolite_detected; Compound recovery (Plasma [7]): metabolite_detected; Compound recovery (Plasma [8]): metabolite_detected; Compound recovery (Plasma [9]): metabolite_detected |
| 3.6% | 9.8% | 10.8% | 28 nM | 26 nM | 0.5% | 1.3% | 1.5% | metabolite_not_detected | metabolite_not_detected | metabolite_not_detected | 2.3% | 5.5% | 1628.2 ugequiv/l.hr | 3611.4 ugequiv/l.hr | 0.8% | 3.5% | 2.1% | 35.2% | 15.2% | Cc1cc2c(F)c(Oc3ncnn4cc(OC[C@@H](C)OS(=O)(=O)O)c(C)c34)ccc2[nH]1 | Compound recovery [17]: metabolite_detected; AUC (Cynomolgus monkey [20]): 755.8 ugequiv/l.hr; Compound recovery [27]: metabolite_not_detected; Compound recovery [28]: 26.2%; Compound recovery (Plasma [29]): 1.9%; Compound recovery (Plasma [30]): 1%; Compound recovery (Plasma [31]): 1.3%; AUC metabolite/AUC radiolabel (Cynomolgus monkey [32]): 1.1%; AUC metabolite/AUC radiolabel (Rattus norvegicus [33]): 1.2% |
| 57.1% | 46.7% | 38% |  |  | 22% | 15.8% | 14.3% | 60.8% | 71.9% | 72.4% | 56.9% | 46.1% | 23709.8 ugequiv/l.hr | 30257.7 ugequiv/l.hr | metabolite_not_detected | 1.8% | metabolite_not_detected | 6.5% | metabolite_not_detected | Cc1cc2c(F)c(Oc3ncnn4cc(OC[C@@H](C)O)c(C)c34)ccc2[nH]1 [BRIVANIB] | AUC (Cynomolgus monkey [34]): 42587.2 ugequiv/l.hr; Compound recovery [35]: metabolite_not_detected; Compound recovery [27]: metabolite_not_detected; Compound recovery [28]: 7.5%; Compound recovery (Liver microsome [36]): metabolite_detected; Tmax (Cynomolgus monkey [37]): 2 h; AUCt (Cynomolgus monkey [38]): 49000 ng·h/mL; Cmax (Homo sapiens [39]): 6100 ng/mL; Tmax (Homo sapiens [40]): 1 h; AUCt (Homo sapiens [41]): 45900 ng·h/mL; Compound recovery (Plasma [29]): 70.7%; Compound recovery (Plasma [30]): 62.7%; Compound recovery (Plasma [31]): 44.2%; AUC metabolite/AUC radiolabel (Cynomolgus monkey [42]): 61.4%; AUC metabolite/AUC radiolabel (Rattus norvegicus [33]): 17%; Cmax (Rattus norvegicus [43]): 6400 ng/mL; Tmax (Rattus norvegicus [44]): 1 h; AUCt (Rattus norvegicus [45]): 35500 ng·h/mL; Cmax (Cynomolgus monkey [46]): 6200 ng/mL |

Source: ChEMBL document CHEMBL3526109 (Drug Metab Dispos, 2011)
